Patent US4735961A, “Oxazoles and thiazoles containing an aminohydroxypropoxyphenyl moiety” (Merck & Co., Inc., priority 1985, dated 1988)

system: β2 : β1 receptors; experiment: cardioselectivity, β2:β1 ratio (pulmonary versus cardiac effect, guinea pig trachea versus atria); type: cell-based; conditions: ratio of pulmonary (β2) to cardiac (β1) effect; over 1 = cardioselective
Excerpt: Expressed in different terms, a smaller amount of a compound of the invention is required to block isoproterenol-induced elevation in heart rate than is required to block the isoproterenol-induced relaxation of the bronchi. This cardioselectivity factor can be expressed as the ratio of ED50 for pulmonary effect (β2):ED50 for cardiac effect (β1). Where the β2 :β1 ratio is over 1, then the compound would be considered to have cardioselective activity.

Row | SMILES | β2 :β1
1 | COc1ccc(CCNCC(O)COc2ccc(-c3ncco3)cc2)cc1OC (stereo not drawn) [Example 1, 2-p-[3-(3,4-Dimethoxyphenethylamino)-2-hydroxypropoxy]phenyl oxazole] | 19
2 | COc1ccc(CCNC[C@H](O)COc2ccc(-c3nccs3)cc2)cc1OC [Example 2, (S) 2-p-[3-(3,4-Dimethoxyphenylethyl)amino-2-hydroxypropoxy]phenyl thiazole] | 813
3 | OC(CNC1CC1)COc1ccc(-c2nccs2)cc1 (stereo not drawn) [Example 3, 2-[p-(3-Cyclopropylamino-2-hydroxypropoxy)phenyl]thiazole] | 85
